Experimental data reported in patent publication US20250059196A1 (SHANGHAI HANSOH BIOMEDICAL CO., LTD., priority 2021, published 2025).
Where two headings read alike, the source gives them in different places.

Legend:
[1] = molecular target: MALT1 protease activity in TMD8 cells (substrate BCL-10) (Homo sapiens (Human), UniProt Q9UDY8); test: Intracellular MALT1 protease activity detection (BCL-10 ELISA in TMD8 cells); assay type: cell-based; conditions: undigested BCL-10 by ELISA, 30 min compound then 2 h stimulation cocktail, read-out: Bcl10 TMD8 IC50
MALT1 protease activity in TMD8 cells (substrate BCL-10), sequence (Q9UDY8 whole entry): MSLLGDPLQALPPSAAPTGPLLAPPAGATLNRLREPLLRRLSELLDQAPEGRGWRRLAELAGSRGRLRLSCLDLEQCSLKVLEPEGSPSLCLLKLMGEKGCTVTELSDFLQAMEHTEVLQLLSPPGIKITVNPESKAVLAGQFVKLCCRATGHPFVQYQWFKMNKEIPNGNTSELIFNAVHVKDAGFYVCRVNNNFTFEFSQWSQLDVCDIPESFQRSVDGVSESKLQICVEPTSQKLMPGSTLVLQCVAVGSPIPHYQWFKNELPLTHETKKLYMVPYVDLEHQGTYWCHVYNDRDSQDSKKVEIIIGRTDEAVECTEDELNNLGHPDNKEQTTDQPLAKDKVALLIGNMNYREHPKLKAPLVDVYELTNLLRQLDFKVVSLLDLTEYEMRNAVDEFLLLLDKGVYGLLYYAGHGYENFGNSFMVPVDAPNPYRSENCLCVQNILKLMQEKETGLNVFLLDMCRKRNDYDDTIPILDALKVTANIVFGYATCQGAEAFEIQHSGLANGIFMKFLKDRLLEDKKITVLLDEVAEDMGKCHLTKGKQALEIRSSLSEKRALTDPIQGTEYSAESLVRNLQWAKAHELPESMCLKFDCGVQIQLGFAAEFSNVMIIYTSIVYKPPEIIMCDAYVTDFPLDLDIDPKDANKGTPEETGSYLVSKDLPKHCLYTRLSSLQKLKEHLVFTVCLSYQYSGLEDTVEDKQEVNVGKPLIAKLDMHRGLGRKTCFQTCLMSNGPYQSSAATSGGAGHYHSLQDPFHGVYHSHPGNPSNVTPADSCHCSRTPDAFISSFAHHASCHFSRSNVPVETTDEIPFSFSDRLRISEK
Description: By detecting the digestion level of the substrate BCL-10 by MALT1 in TMD8 cells, the inhibitory effect of the compound on MALT1 protease activity in the cellular environment was tested.
The ELISA sandwich method was used to detect the content of undigested BCL-10 protein in cells and determine the inhibitory effect of compounds on intracellular MALT1 protease activity. The highest concentration of the compound detected was 10000 nM, 3-fold dilution, a total of 9 concentrations (10000 nM-1.5 nM). Cells were plated at an appropriate density. Compounds of corresponding concentrations were first added for action for 30 min, and then eBioscience cell stimulation cocktail was added to stimulate the cells for 2 h. Cell lysate was then collected. The cell lysate was added to the assay plate previously coated with recombinant BCL-10 antibody (Abcam, #Ab33905) and incubated at 4° C. overnight. The next day, BCL-10 detection antibody (Santacruz, #Sc-5273HRP) was added and incubated for 2 h, TMB substrate was used for color development for about 30 min, then the color development was terminated, and a microplate reader was used for detection.
2) Curve fitting: Log(inhibitor) vs. response—Variable slope (four parameters) in GraphPad Prism 6 was used to perform fitting equation analysis on compound concentration and corresponding inhibition rate, the curve was fit and compound IC50 value was obtained.
(§1) The fitting calculation equation is Y=Bottom+(Top−Bottom)/(1+10^((Log IC50−X)*HillSlope))

[2] = Pharmacokinetics of oral administration in Balb/C mice; assay type: in vivo; conditions: 30 mg/kg, P.O., plasma
Description: Balb/C mice were used as test animals to study the pharmacokinetic behavior of the compound in the plasma of mice after oral administration at a dose of 30 mg/kg.
3 Balb/C mice (3/example), male, from Shanghai Jiesijie Experimental Animal Co., Ltd., animal production license number (SCXK (Shanghai) 2013-0006 N0.311620400001794).
3 Balb/C mice, male; p.o. respectively at a dose of 30 mg/kg and an administration volume of 10 mL/kg after the mice were fasted overnight.
Before and after administration of mice, 0.1 mL of blood was collected from the orbit at 0, 0.5, 1, 2, 4, 6, 8 and 24 h, and placed in EDTA-K2 test tubes, which was centrifuged at 6000 rpm at 4° C. for 6 min to separate plasma which was stored at −80° C.
• 1) 160 μL of acetonitrile was added to 40 μL of plasma sample for precipitation, and same was mixed and centrifuged at 3500×g for 5 to 20 min. • 2) 100 μL of the treated supernatant solution was taken and subjected to LC/MS/MS to analyze the concentrations of the test compounds.
• Liquid phase conditions: Shimadzu LC-20AD pump • Mass spectrometry conditions: AB Sciex API 4000 mass spectrometer • Chromatographic column: Phenomenex Gemiu 5 um C18 50×4.6 mm • Mobile phase: liquid A is 0.1% aqueous formic acid solution, liquid B is acetonitrile • flow rate: 0.8 mL/min • Elution time: 0-4.0 min, the eluent is as follows:
The main pharmacokinetic parameters were calculated using WinNonlin 8.2.

Caco-2 cells [3] = system: Caco-2 cells
Description: (§3) The purpose of this experiment is to test the bidirectional permeability of the compound through the Caco-2 cell model and evaluate whether the compound is transported by efflux transporters.
(§4) Liquid chromatography-mass spectrometer, centrifuge, vortexer, pipette, 96-well test plate (HTS Transwell Plate), acetonitrile solution containing internal standard, Caco-2 cells (ATCC), Hank's balance solution (HBSS), fluorescent yellow (LY), dimethyl sulfoxide (DMSO).
(§5) 108 μL of transport buffer (HBSS containing 10 μM of the example compound) was added to the administration end of A to B. • b. 300 μL of transport buffer (HBSS containing DMSO) was added to the receiving end of A to B. • c. 300 μL of transport buffer (HBSS containing 10 μM example compound) was added to the administration end of A to B. • d. 108 μL of transport buffer (HBSS containing DMSO) was added to the receiving end of A to B. • e. incubation was performed for 90 min. • d. a sample was taken, processed and detected with mass spectrometry.
(§6) • Instruments: Liquid Chromatography; • Chromatographic column: Waters XSelect HSS T3 2.5 μm (2.1×50 mm); • Mobile phase: Phase A: 0.1% formic acid in pure water; Phase B: 0.1% formic acid in acetonitrile.
(§7) • Instruments: AP16500+liquid chromatography-mass spectrometer; • The ion source is electrospray ionization source (ESI); • The detection method is positive ion detection;
(§8) The scanning method is selected reaction monitoring (MRM).

[4] = molecular target: Recombinant human MALT1/MLT protein (Homo sapiens (Human), UniProt Q9UDY8); test: Inhibitory effect on MALT1 enzyme activity (Ac-LRSR-AMC substrate, fluorescence 460 nm); assay type: biochemical; conditions: 10 nM FL MALT1, Ac-LRSR-AMC substrate, 50 min pre-incubation, 4 h reaction
Recombinant human MALT1/MLT protein, sequence (Q9UDY8 whole entry): as above
Description: Ac-LRSR-AMC was used as the substrate to test the IC50 of the inhibitory activity of compounds on MALT1 enzyme activity at their Km concentration.
Ac-LRSR-AMC was used as the substrate which was digested by MALT1 to produce products, which produced fluorescence that could be detected at 460 nm. The highest concentration of the compound detected was 1000 nM, 3-fold dilution, a total of 11 concentrations (1000 nM-0.017 nM). The reaction system is 10 nM FL MALT1 protein, […] Ac-LRSR-AMC, 50 mM Tris pH 7.5, 0.6M Citrate, 1 mM DTT, 1 mM EDTA, 0.05% BSA and 1.5% DMSO. The compound and the enzyme were pre-incubated at room temperature for 50 min. The substrate was then added and the reaction was carried out for 4 h.
The original data (460 nm reading) was calculated according to the following formula to obtain the inhibition rate.
(§2) Log(inhibitor) vs. response—Variable slope (four parameters) in GraphPad Prism 6 was used to perform fitting equation analysis on compound concentration and corresponding inhibition rate, the curve was fit and compound IC50 value was obtained.
as §1

Caco-2 cells [5] = test: Caco-2 bidirectional permeability test
Description: as §3, §4, §5, §6, §7, §8

[6] = system: OCI-LY3 cell subcutaneous xenograft tumor; test: Tumor inhibition in OCI-LY3 subcutaneous xenograft NOG mouse model of human diffuse large B-cell lymphoma; assay type: in vivo; conditions: NOG mice, 30 mg, BID × 4 weeks, oral
Description: The efficacy of test drugs was evaluated in OCI-LY3 mouse subcutaneous tumor model of human diffuse large B-cell lymphoma
• 1. Animal: NOG mice, female, 6-8 weeks old, weighing 18-22 grams, a total of 65 mice were needed. Provided by Beijing Vital River Laboratory Animal Technology Co., Ltd. or other qualified suppliers. • 2. Cell: Human diffuse large B-cell lymphoma OCI-LY3 cells were cultured in vitro as monolayers and conventional digestion treatment with trypsin-EDTA was carried out twice a week for passage. When the cell confluence was 80%-90% and the number reached the required number, cells were collected, counted, and inoculated. • 3. Grouping for vaccination: Cells (5×10^6 cells+Matrigel/0.2 ml) were inoculated subcutaneously into each mouse. The growth of animals and transplanted tumors were observed regularly. When the tumor grew to a volume of about 150-200 mm^3, the tumor volume of each mouse was calculated, and the mice were divided into random groups according to tumor volume and body weight. The calculation formula of tumor volume was V=0.5a×b^2, wherein a and b represented the long and short diameters of the tumor, respectively. • 4. Administration: According to the grouping results, the test drug was started to be administered (administration method: oral administration; Administration volume: 10 mL/kg; Administration frequency: 2 times/day; Administration cycle: 28 days; Vehicle: 10% solutol HS15-0.25% CMC-Na). Tumors were measured and weighed twice a week after starting administration of test drugs. • 5. Animals were euthanized after the experiment. • 6. Data processing: The tumor inhibitory efficacy of the compound was evaluated by TGI (%) or relative tumor proliferation rate T/C (%). TGI (%) reflects the tumor growth inhibition rate. Calculation of TGI (%): TGI (%)=[(1−(average tumor volume at the end of administration in a treatment group−average tumor volume at the beginning of administration in the treatment group))/(average tumor volume at the end of administration in the solvent control group−average tumor volume at the beginning of administration in the solvent control group)]×100%.
Relative tumor proliferation rate T/C (%): The calculation formulas are as follows: T/C %=TRTV/CRTV×100% (TRTV: RTV of treatment group; CRTV: RTV of negative control group). The relative tumor volume (RTV) was calculated based on the results of tumor measurement. The calculation formula is RTV=Vt/V0, where V0 is the average tumor volume measured at grouping for administration (i.e. d0), Vt is the average tumor volume at a certain measurement, and TRTV and CRTV take the data on the same day.
After the experiment, the tumor weight was measured, and the T/Cweight percentage was calculated. Tweight and Cweight represented the tumor weight of the administration group and the vehicle control group, respectively.
Remarks: The data in parentheses indicate the tumor volume corresponding to the vehicle group (i.e., the control group) at the corresponding time in this example.

OCI-Ly3 cells = test: Inhibition of proliferation of OCI-Ly3 cells (CellTiter-Glo); assay type: cell-based, human; conditions: 96 h incubation, read-out: Inhibition test of proliferation of OCI-Ly3 cells IC50
Description: The compound's inhibitory effect on the proliferation of TMD8 and OCI-Ly3 cells was evaluated through cell proliferation inhibition experiments.
The compound's inhibitory effect on the proliferation of TMD8 and OCI-Ly3 cells was detected by the CellTiter-Glo method. The highest concentration of the compound detected was 1000 nM, 3-fold dilution, a total of 9 concentrations (1000 nM-0.15 nM). After the cells were plated at an appropriate density, compounds were added the next day and incubated for 96 h before detection using the CellTiter-Glo Luminescent detection kit.
as §2, §1

Structure (SMILES)	IC50 [1] [nM]	AUC0-∞ [2]	AUC(0-t) [2]	Cmax [2]	MRT [2] [h]	T1/2 [2] [h]	Tmax [2] [h]	Papp A − B (Caco-2 cells [3]; Caco-2)	Papp B − A (Caco-2 cells [3]; Caco-2)	Papp(B − A)/Papp(A − B) (Caco-2 cells [3]; human, Caco-2, 90 min, 10 μM)	IC50 [4] [nM]	Papp A − B (Caco-2 cells [5]; Caco-2, 10 μM, 90 min, A to B)	Papp B − A (Caco-2 cells [5]; Caco-2, 10 μM, 90 min, B to A)	Papp(B − A)/Papp(A − B) (Caco-2 cells [5]; Caco-2 efflux ratio)	TGI (%) Day 28 [6] [%]	Weight Day 28 [6]	ΔT/ΔC(%) Day 28 [6] [%]	Tumor volume (Mean ± SD) Day 28 ([6]; vehicle group 1274 ± 82)	IC50 (OCI-Ly3 cells) [nM]
O=C(Nc1ccnc(C(F)(F)F)c1)c1cnn(-c2ccc3c4c(cccc24)C(=O)N3)c1C(F)(F)F [Example 3]	83	341,390 ng/mL*hr	330,088 ng/mL*h	23,733 ng/mL	7.4	4.7	4.0	1.57 10^−6 cm · s^−1	10.24 10^−6 cm · s^−1	6.52	105	–	–	–	–	–	–	–	–
O=C(Nc1ccnc(C(F)(F)F)c1)c1cnn(-c2ccc3c4c(cccc24)C(=O)N3)c1C(F)(F)F [Example 27]	51	1,584,433 ng/mL*hr	1,130,746 ng/mL*h	71,267 ng/mL	18.7	13.1	–	–	–	–	162	4.21 10^−6 cm · s^−1	11.52 10^−6 cm · s^−1	2.74	93.04	20.34 ± 0.78	19.83	230 ± 50 (1274 ± 82) mm^3	804
